The target in the experiment is rat SAPK (isoform β) (Rattus norvegicus, UniProt P49187). In words: SAPK FlashPlate Assay (inhibition of cJun phosphorylation). Format: biochemical. The following applies: GST-cJun substrate, 30 minutes at 37 °C. The method, then: "IC50" refers to the concentration of a particular 4- or 5-alkynyloxindole or 4-or 5-alkenyloxindole required to inhibit 50% of cJun phosphorylation, which is a measure of inhibition of SAPK activity. IC50 can be measured, inter alia, using the assay described herein in Example 102.
Human JNK is highly homologous to rat SAPK. To measure the inhibitory activity of test compounds, the compounds were tested in the rat SAPK assay.
For the SAPK assay, purified GST-cJun (a chimeric protein containing cJun, a natural substrate of JNK) was coated on 96 well FlashPlates (New England Nuclear, Boston, MA). Purified rat SAPK (isoform β, Kyriakis et al. supra) was preincubated with preparations containing MEKK-1 and MKK4 for 30 minutes at 37 °C in assay buffer containing 25 mM HEPES, pH 7.5, 150 mM NaCl, 20 mM MgCl2, 2 mM DTT, 0.001% Tween 20, 1 µM ATP freshly added. In the preincubation step, MEKK-1 phosphorylates and activates MKK-4, which in tum phosphorylates and activates SAPK. The activated SAPK was then added to the cJun coated FlashPlates along with ^33P-ATP (0.32 µCi per reaction) and test compounds. The plates were incubated for 30 minutes at 37 °C, then washed with PBS, 0.01% Tween 20, and counted in the Topcount scintillation counter (Packard Instrument Co., Downers Grove, IL). Dilutions of compounds were tested in duplicate in each assay. The percent inhibition of cJun phosphorylation (a measure of inhibition of SAPK activity) was determined by the following formula: [formula] where "test compound" refers to the average counts per minute of the test duplicates, "nonspecific" refers to the average counts per minute when no SAPK was added, and "total" refers to the average counts per minute when no compound was added.

The IC50 is the concentration at which inhibition is half-maximal. A higher IC50 goes with lower potency.

Structures are written as SMILES. Bounds are passed on as bounds.

Chain of rat SAPK (isoform β) (P49187 whole entry, canonical isoform): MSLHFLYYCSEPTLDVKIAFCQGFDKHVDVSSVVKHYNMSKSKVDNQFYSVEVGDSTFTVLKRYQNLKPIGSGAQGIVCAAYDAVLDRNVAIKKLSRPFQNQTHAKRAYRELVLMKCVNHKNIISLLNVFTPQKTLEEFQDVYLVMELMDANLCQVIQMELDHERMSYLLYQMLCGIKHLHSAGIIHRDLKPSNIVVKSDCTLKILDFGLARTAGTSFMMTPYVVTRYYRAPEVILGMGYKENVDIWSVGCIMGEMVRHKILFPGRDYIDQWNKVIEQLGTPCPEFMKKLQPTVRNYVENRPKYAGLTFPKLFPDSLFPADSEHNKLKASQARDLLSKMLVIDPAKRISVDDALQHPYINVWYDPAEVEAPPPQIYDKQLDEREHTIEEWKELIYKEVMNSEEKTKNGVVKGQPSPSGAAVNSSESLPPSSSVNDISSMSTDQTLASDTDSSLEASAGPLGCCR

On to `COc1cc[nH]c1/C=C1\C(=O)Nc2cccc(C#CC(O)c3ccc(NC(C)=O)cc3)c21` (racemic) [BBB, rac-(Z)-4-[3-(4-Acetamidophenyl)-3-hydroxy-1-propynyl]-1,3-dihydro-3-[(3-methoxy-1H-pyrrol-2-yl)methylene]-2H-indol-2-one], for which the half-inhibitory concentration (IC50) was less than 1 µM.
The figure for `COc1ccccc1C(O)C#Cc1cccc2c1/C(=C/c1[nH]ccc1OC)C(=O)N2` (racemic) [Compound M, rac-(Z)-1,3-Dihydro-4-[3-hydroxy-3-(2-methoxyphenyl)-1-propynyl]-3-[(3-methoxy-1H-pyrrol-2-yl)methylene]-2H-indol-2-one] is less than 1 µM; for `COc1cc(C(O)C#Cc2cccc3c2/C(=C/c2[nH]ccc2OC)C(=O)N3)ccc1OCCN1CCOCC1` (racemic) [Compound MM, rac-(Z)-1,3-Dihydro-4-[3-hydroxy-3-[3-methoxy-4-[2-(4-morpholinyl)-ethoxy]-phenyl]-1-propynyl]-3-[(3-methoxy-1H-pyrrol-2-yl)methylene]-2H-indol-2-one] it is less than 1 µM.
Consider `COc1cc[nH]c1/C=C1\C(=O)Nc2cccc(C#CC(C)(O)c3ccccc3)c21` (racemic) [Compound T, rac-(Z)-1,3-Dihydro-4-[3-hydroxy-3-phenyl-1-butynyl]-3-[(3-methoxy-1H-pyrrol-2-yl)methylene]-2H-indol-2-one], for which the half-inhibitory concentration (IC50) came out at 0.253 µM.
The figure for `COc1cc[nH]c1/C=C1\C(=O)Nc2cccc(C#CC(O)c3ccc(OCCN4CCOCC4)cc3)c21` (racemic) [Compound TT, rac-(Z)-1,3-Dihydro-4-[3-hydroxy-3-[4-[2-(4-morpholinyl)-ethoxy]-phenyl]-1-propynyl]-3-[(3-methoxy-1H-pyrrol-2-yl)methylene]-2H-indol-2-one] is less than 1 µM; for `COc1cc[nH]c1/C=C1\C(=O)Nc2cccc(C#CC(O)c3ccc[nH]3)c21` (racemic) [DD, rac-(Z)-1,3-Dihydro-4-[3-hydroxy-3-(1H-pyrrol-2-yl)-1-propynyl]-3-[(3-methoxy-1H-pyrrol-2-yl)methylene]-2H-indol-2-one] it is less than 1 µM.
In the case of `COc1ccc(C(O)C#Cc2cccc3c2/C(=C/c2[nH]ccc2OC)C(=O)N3)cc1OC` (racemic) [FF, rac-(Z)-1,3-Dihydro-4-[3-(3,4-dimethoxyphenyl)-3-hydroxy-1-propynyl]-3-[(3-methoxy-1H-pyrrol-2-yl)methylene]-2H-indol-2-one], the IC50 was less than 1 µM.
The figure for `COc1ccc(C(O)C#Cc2cccc3c2/C(=C/c2[nH]ccc2OC)C(=O)N3)cc1O` (racemic) [HH, rac-(Z)-1,3-Dihydro-4-[3-hydroxy-3-(3-hydroxy-4-methoxyphenyl)-1-propynyl]-3-[(3-methoxy-1H-pyrrol-2-yl)methylene]-2H-indol-2-one] is less than 1 µM.
The figure for `COc1cc[nH]c1/C=C1\C(=O)Nc2cccc(C#CC(O)c3sccc3OC)c21` (racemic) [OO, rac-(Z)-1,3-Dihydro-4-[3-hydroxy-3-(3-methoxy-2-thiophenyl)-1-propynyl]-3-[(3-methoxy-1H-pyrrol-2-yl)methylene]-2H-indol-2-one] is less than 1 µM; for `COc1cc(OC)c(C(O)C#Cc2cccc3c2/C(=C/c2[nH]ccc2OC)C(=O)N3)cc1OC` (racemic) [PP, rac-(Z)-1,3-Dihydro-4-[3-hydroxy-3-(2,4,5-trimethoxyphenyl)-1-propynyl]-3-[(3-methoxy-1H-pyrrol-2-yl)methylene]-2H-indol-2-one] it is less than 1 µM; for `COc1cc[nH]c1/C=C1\C(=O)Nc2cccc(C#CC(O)c3ccc(O)cc3)c21` (racemic) [Q, rac-(Z)-1,3-Dihydro-4-[3-hydroxy-3-(4-hydroxyphenyl)-1-propynyl]-3-[(3-methoxy-1H-pyrrol-2-yl)methylene]-2H-indol-2-one] it is less than 1 µM.
In the case of `COc1cc(C(O)C#Cc2cccc3c2/C(=C/c2[nH]ccc2OC)C(=O)N3)ccc1OCC(=O)O` (racemic) [RR, rac-(Z)-[4-[3-[2,3-Dihydro-3-[(3-methoxy-1H-pyrrol-2-yl)methylene]-2-oxo-1H-indol-4-yl]-1-hydroxy-2-propynyl]-2-methoxyphenoxy]acetic acid], the 50% inhibitory concentration (IC50) is less than 1 µM.
In the case of `COc1cc[nH]c1/C=C1\C(=O)Nc2cccc(C#CC(O)c3cc(OC)c4c(c3)OCO4)c21` (racemic) [SS, rac-(Z)-4-[3-hydroxy-3-(4-methoxy-1,3-benzodioxol-6-yl)-1-propynyl]-1,3-dihydro-3-[(3-methoxy-1H-pyrrol-2-yl)methylene]-2H-indol-2-one], the IC50 was less than 1 µM.
The same measure for `COc1cc[nH]c1/C=C1\C(=O)Nc2cccc(C#CC(O)c3ccc(Cl)cc3OCSC)c21` (racemic) [UU, rac-(Z)-4-[3-(4-Chloro-2-methylsulfanylmethoxyphenyl)-3-hydroxy-1-propynyl]-1,3-dihydro-3-[(3-methoxy-1H-pyrrol-2-yl)methylene]-2H-indol-2-one]: less than 1 µM; for `COc1cc[nH]c1/C=C1\C(=O)Nc2cccc(C#CC(O)c3ccc(OCCCN(C)C)cc3)c21` (racemic) [V, rac-(Z)-1,3-Dihydro-4-[3-[4-(3-dimethylaminopropoxy)-phenyl]-3-hydroxy-1-propynyl]-3-[(3-methoxy-1H-pyrrol-2-yl)methylene]-2H-indol-2-one]: 0.034 µM.
Regarding `COc1cc[nH]c1/C=C1\C(=O)Nc2cccc(C#CC(O)c3ccco3)c21` (racemic) [VV, rac-(Z)-1,3-Dihydro-4-[3-(2-furanyl)-3-hydroxy-1-propynyl]-3-[(3-methoxy-1H-pyrrol-2-yl)methylene]-2H-indol-2-one], the IC50 was less than 1 µM.
The same measure for `COc1cc[nH]c1/C=C1\C(=O)Nc2cccc(C#CC(O)c3ccc(OCC(=O)OC(C)(C)C)cc3)c21` (racemic) [XX, rac-(Z)-[4-[3-[2,3-dihydro-3-[(3-methoxy-1H-pyrrol-2-yl)methylene]-2-oxo-1H-indol-4-yl]-1-hydroxy-2-propynyl]phenoxy]acetic acid 1,1-dimethylethyl ester]: less than 1 µM; for `COc1cc[nH]c1/C=C1\C(=O)Nc2cccc(C#CC(O)c3ccc(OCC(=O)O)cc3)c21` (racemic) [YY, rac-(Z)-[4-[3-[2,3-dihydro-3-[(3-methoxy-1H-pyrrol-2-yl)methylene]-2-oxo-1H-indol-4-yl]-1-hydroxy-2-propynyl]phenoxy]acetic acid]: less than 1 µM.
The figure for `COc1cc[nH]c1/C=C1\C(=O)Nc2cccc(C#Cc3ccccn3)c21` [DDD, (Z)-1,3-Dihydro-3-[(3-methoxy-1H-pyrrol-2-yl)methylene]-4-[(2-pyridinyl)ethynyl]-2H-indol-2-one] is less than 1 µM; for `COc1cc[nH]c1/C=C1\C(=O)Nc2cccc(C#Cc3ccncc3)c21` [EEE, (Z)-1,3-Dihydro-3-[(3-methoxy-1 H-pyrrol-2-yl)methylene]-4-[(4-pyridinyl)ethynyl]-2H-indol-2-one] it is less than 1 µM; for `COc1cc[nH]c1/C=C1\C(=O)Nc2ccc([N+](=O)[O-])c(C#Cc3cccnc3)c21` [GGG, (Z)-1,3-Dihydro-3-[(3-methoxy-1H-pyrrol-2-yl)methylene]-5-nitro-4-[(3-pyridinyl)ethynyl]-2H-indol-2-one] it is less than 1 µM.
The figure for `COc1cc[nH]c1/C=C1\C(=O)Nc2ccc(N)c(C#Cc3cccnc3)c21` [HHH, (Z)-5-Amino-1,3-dihydro-3-[(3-methoxy-1H-pyrrol-2-yl)methylene]-4-[(3-pyridinyl)ethynyl]-2H-indol-2-one] is less than 1 µM.

These data come from patent EP1149092B1, “4- AND 5-ALKYNYLOXINDOLES AND 4- AND 5-ALKENYLOXINDOLES” (F. HOFFMANN-LA ROCHE AG, priority 1998, dated 2000).
